How the values were obtained:
mouse parietal bone = assay: Osteogenesis in mouse parietal bone with PGE2-containing CHP nanogel (width by 2-D μCT); format: in vivo; details: 3-week old ICR mouse, local administration onto parietal bone 5 times a week for 4 weeks, PGE2 0.6 μg/ml, FIG. 3
Protocol: PGE2-containing hydrophobized polysaccharide nanogel was administered to a mouse parietal bone to observe osteogenesis.
(§1) The PGE2-containing CHP prepared by the same manner as in Example 2 was locally administrated onto the parietal bone of a 3-week old ICR mouse 5 times a week for 4 weeks. […] of the prepared PGE2-containing CHP solution (PGE2 0.6 μg/ml) was administered for a dose. Evaluation was conducted for 4 groups of physiological saline, PGE2, CHP, PGE2-containing CHP (N=5). After 4 weeks of administration, the mice were sacrificed, and the parietal bones were collected, and the width of the parietal bone was measured by 2-D μCT. In order to study the effect on the bones of a whole body, the amount of cancellous bone of the femur was evaluated.

MC3T3E1 cells [1] = assay: Cell differentiation by alkaline phosphatase (ALP) activity in osteoblast cell line; format: cell-based; details: PGE2 10 μM, 24 hours, FIG. 5
Protocol: (§2) In order to understand the mechanism at the cellular level of the PGE2-containing CHP nanogel, the osteoblast cell line MC3T3E1 cell culture system was used to analyze the cell differentiation by alkaline phosphatase (ALP) activity and the cell growth by the MTT method.
(§3) MC3T3E1 cells were seeded 5×10^3 cells/well in a 96-well plate and cultured in the presence of […] at 37° C. for 1 day. These cells were supplied with the PGE2-containing CHP solution (PGE2 10 μM) prepared in the same manner as in Example 2 to get the same concentration, then cultured in the presence of […] at 37° C. for 24 hours, then collected by scraping, and dissolved in 0.05 ml of a lysis buffer. The alkaline phosphatase (ALP) activity was measured according to the published protocols. In addition, the MTT method was conducted according to the published protocols.

femur cancellous bone = assay: Effect on bones of the whole body: amount of cancellous bone of the femur; format: in vivo, ICR mouse; details: same mice, local parietal administration 5 times a week for 4 weeks, FIG. 4
Protocol: as §1

MC3T3E1 cells [2] = assay: Cell growth by the MTT method in osteoblast cell line; format: cell-based; details: PGE2 10 μM, 24 hours, FIG. 5
Protocol: as §2, §3

In the case of CCCCC[C@H](O)/C=C/[C@H]1[C@H](O)CC(=O)[C@@H]1C/C=C\CCCC(=O)O [PGE2, Prostaglandin E2], the “width of the parietal bone” value (mouse parietal bone) is reported as “no change”, the “cellular differentiation (ALP activity)” value (MC3T3E1 cells [1]) is reported as “increase” and the “amount of cancellous bone in the femur apart from the administration site” value (femur cancellous bone) is reported as “increase”. For the same compound, the “cellular growth (MTT method)” value (MC3T3E1 cells [2]) was “increase”.
